Results from patent US5516647A, “Compounds useful as alkaline phosphatase inhibitors and therapeutic agents” (Abbott Laboratories, priority 1993, dated 1996).
“Also recorded” adds a separate entry of the source. Where two headings read alike, the source gives them in different places.

How the values were obtained:
[1] = target: T1, human placental AP (Homo sapiens, UniProt P05187); assay: Inhibition of human placental AP isoenzyme (p-nitrophenylphosphate hydrolysis); assay type: biochemical; conditions: for effectiveness against placental isoenzymes / order of effectiveness, placental isoenzymes: FIG. 5; for inhibition of the placental isoenzymes: FIG. 7, at the concentration compared with E. coli AP; for times more potent than L-phenylalanine, placental isoenzymes: ratio to L-phenylalanine; for times more potent than levamisole, placental isoenzymes: ratio to levamisole
T1 construct: purchased Sigma Chemical Co., St. Louis, Mo
T1 sequence (P05187 23-506 limits assumed): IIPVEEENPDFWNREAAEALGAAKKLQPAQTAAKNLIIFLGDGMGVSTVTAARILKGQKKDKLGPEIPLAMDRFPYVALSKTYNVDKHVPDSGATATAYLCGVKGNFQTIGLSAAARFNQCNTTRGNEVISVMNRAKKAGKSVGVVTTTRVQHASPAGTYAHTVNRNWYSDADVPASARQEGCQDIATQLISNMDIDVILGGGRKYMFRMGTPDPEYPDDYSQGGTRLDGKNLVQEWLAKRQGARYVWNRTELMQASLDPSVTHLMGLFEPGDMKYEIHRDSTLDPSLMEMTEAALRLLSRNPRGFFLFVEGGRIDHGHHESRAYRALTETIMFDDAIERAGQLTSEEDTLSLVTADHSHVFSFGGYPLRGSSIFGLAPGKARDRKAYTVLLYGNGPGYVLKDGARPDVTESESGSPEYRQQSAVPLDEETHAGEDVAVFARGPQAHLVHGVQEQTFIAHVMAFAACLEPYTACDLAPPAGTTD
Protocol: (§1) Human intestinal AP was obtained from Aalto Scientific, Ltd. Vista, Calif. […] L-Phenylalanine was obtained from Aldrich Chemical Company, Milwaukee, Wis. Human bone AP was isolated from human osteosarcoma-derived cell line, Saos-2 (Catalog No. HTB 85, The American Type Culture Collection, 12301 Parklawn Drive, Rockville, Md.) by butanol extraction as described by J. R. Farley et al., (1989) Clin Chem. 35, 223-229.
(§2) AP activity was determined with VP Bichromatic Analyzer (Abbott Laboratories) by monitoring the appearance of the yellow product, p-nitrophenol, produced as a result of the enzyme catalyzed hydrolysis of the colorless substrate, p-nitrophenylphosphate. The stock preparations of E. coli and human AP were diluted to 0.3-1.0 U/ml with 0.1M Tris buffer, pH 8.0, containing 1 mM magnesium chloride, 0.1 mM zinc chloride and 5 mg/ml bovine serum albumin. […] The diluted enzyme solutions were prepared fresh just before the start of the experiments. The final assay conditions for the human and E. coli AP were as follows:
(§3) Human AP Isoenzymes: p-Nitrophenylphosphate (2.2 mmol/liter); Diethanolamine (500 mmol/liter); Magnesium chloride (1 mmol/liter); Zinc chloride (0.1 mmol/liter). The reaction pH was 10.2 at a reaction temperature of 37° C. and volume fraction (sample/total) of 0.033 (1:30).
(§4) The diluted enzymes and inhibitors at appropriate concentrations (as shown in the Figures) were hand pipetted into numbered cuvettes in the multicuvette assembly of the VP Bichromatic Analyzer. Once the assay was started, the analyzer dispensed an appropriate amount of the buffered solution of p-nitrophenylphosphate containing magnesium and zinc chlorides into each cuvette. The multicuvette assembly rotated and allowed measurement of absorbance changes at every two minutes intervals. A 415 nm-450 nm filter was used to assay AP activity. All enzyme activity measurements were done at least in duplicate and the average value was used in the data analyses.
(§5) The I50 value for APl-3 is similarly calculated from its dose response curve.

[2] = target: T2, human intestinal AP (Homo sapiens, UniProt P09923); assay: Inhibition of human intestinal AP isoenzyme (p-nitrophenylphosphate hydrolysis); assay type: biochemical; conditions: for order of effectiveness, intestinal isoenzymes / effectiveness against intestinal isoenzymes: FIG. 6; for inhibition of the intestinal isoenzymes: FIG. 7, at the concentration compared with E. coli AP; for times as potent/effective as L-phenylalanine, intestinal isoenzymes: ratio to L-phenylalanine; for times as potent/effective as levamisole, intestinal isoenzymes: ratio to levamisole
T2 construct: purchased Aalto Scientific, Ltd., Vista, Calif
T2 sequence (P09923 20-503 limits assumed): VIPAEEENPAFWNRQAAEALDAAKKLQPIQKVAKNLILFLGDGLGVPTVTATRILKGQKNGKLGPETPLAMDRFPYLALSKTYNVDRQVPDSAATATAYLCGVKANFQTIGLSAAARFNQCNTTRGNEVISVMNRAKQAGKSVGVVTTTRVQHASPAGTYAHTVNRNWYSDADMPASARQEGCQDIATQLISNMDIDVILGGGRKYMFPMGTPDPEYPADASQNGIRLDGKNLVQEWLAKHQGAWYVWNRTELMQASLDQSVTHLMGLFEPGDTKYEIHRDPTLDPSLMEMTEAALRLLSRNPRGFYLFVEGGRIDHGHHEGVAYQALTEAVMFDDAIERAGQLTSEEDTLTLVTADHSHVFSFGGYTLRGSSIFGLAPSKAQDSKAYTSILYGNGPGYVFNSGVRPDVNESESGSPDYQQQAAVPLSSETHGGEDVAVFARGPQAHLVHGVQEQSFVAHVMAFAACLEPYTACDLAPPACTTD
Protocol: as §1, §2, §3, §4, §5

[3] = system: E. coli AP; assay: Inhibition of (altered) E. coli AP (p-nitrophenylphosphate hydrolysis); assay type: biochemical; conditions: FIG. 7, at the concentration inhibiting human isoenzymes, high concentrations
Protocol: E. coli AP (APKJ3 and APKJ4) were obtained according to the methods disclosed in U.S. patent Ser. No. 08/031,165 and its CIP. APKJ4 is an E. coli AP in which the lysine at its position 177 has been replaced with cysteine.
as §2
E. coli AP: P-Nitrophenylphosphate (1 mmol/liter); Tris-chloride (100 mmol/liter); Magnesium chloride (1 mmol/liter); and Zinc chloride (0.1 mmol/liter). The reaction pH was 8.0 at a reaction temperature of 37° C. and volume fraction (sample/total) of 0.033 (1:30).
as §4

[4] = system: tissue-nonspecific AP; conditions: background art; cited from earlier work
[5] = system: placental and intestinal isoenzymes; conditions: background art; cited from earlier work
[6] = target: T3, calf intestinal AP (Bos taurus, UniProt P19111); conditions: used in an immunoassay; cited from earlier work
T3 sequence (P19111 20-506): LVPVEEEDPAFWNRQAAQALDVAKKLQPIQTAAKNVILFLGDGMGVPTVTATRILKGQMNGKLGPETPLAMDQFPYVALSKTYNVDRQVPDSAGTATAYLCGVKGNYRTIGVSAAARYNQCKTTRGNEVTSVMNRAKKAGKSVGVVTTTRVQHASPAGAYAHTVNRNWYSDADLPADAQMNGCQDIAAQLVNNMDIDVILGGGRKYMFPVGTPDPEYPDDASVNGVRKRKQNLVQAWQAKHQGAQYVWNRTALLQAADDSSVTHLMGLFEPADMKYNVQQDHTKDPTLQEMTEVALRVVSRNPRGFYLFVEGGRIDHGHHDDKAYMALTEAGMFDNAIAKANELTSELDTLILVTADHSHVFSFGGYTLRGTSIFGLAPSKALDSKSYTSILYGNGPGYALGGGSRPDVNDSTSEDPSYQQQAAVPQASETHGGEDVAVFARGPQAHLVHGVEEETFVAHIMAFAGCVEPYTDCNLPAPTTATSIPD

[7] = target: T4, human bone AP (Homo sapiens, UniProt P05186); assay: Inhibition of human bone AP isoenzyme (p-nitrophenylphosphate hydrolysis); assay type: biochemical; conditions: for order of potency as inhibitors of bone AP: FIG. 4; for IC50: read-out: [I]50 Bone AP: concentration of inhibitor that gives 50% inhibition of enzyme activity; for times more active than levamisole, bone isoenzymes: ratio to levamisole
T4 construct: Human bone AP was isolated from human osteosarcoma-derived cell line, Saos-2; host or cells: Saos-2 (human osteosarcoma-derived cell line, ATCC), butanol extraction
T4 sequence (P05186 18-502 limits assumed): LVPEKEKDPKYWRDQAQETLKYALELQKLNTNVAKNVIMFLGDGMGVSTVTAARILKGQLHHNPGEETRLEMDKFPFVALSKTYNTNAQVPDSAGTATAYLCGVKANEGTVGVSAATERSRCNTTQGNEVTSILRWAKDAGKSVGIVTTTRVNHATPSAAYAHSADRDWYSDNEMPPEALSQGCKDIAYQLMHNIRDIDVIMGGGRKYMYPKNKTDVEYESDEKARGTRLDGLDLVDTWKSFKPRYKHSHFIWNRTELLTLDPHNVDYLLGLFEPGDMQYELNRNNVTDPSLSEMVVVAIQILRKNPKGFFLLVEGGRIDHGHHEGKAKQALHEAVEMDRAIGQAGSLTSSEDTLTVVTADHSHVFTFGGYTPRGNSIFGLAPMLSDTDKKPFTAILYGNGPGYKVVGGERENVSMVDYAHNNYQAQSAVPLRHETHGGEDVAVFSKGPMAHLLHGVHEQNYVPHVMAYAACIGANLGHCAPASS
Protocol: as §1, §2, §3, §4, §5

[8] = target: T3, calf intestinal AP; assay: Inhibition of calf intestinal AP; assay type: biochemical; conditions: for inhibition of calf intestinal AP versus E. coli AP: compared with E. coli AP; for inhibition of calf intestinal AP versus L-phenylalanine and levamisole: compared with L-phenylalanine and levamisole; for inhibition of calf intestinal AP versus human intestinal AP: compared with human intestinal AP
[9] = system: human AP; assay: Selectivity for human AP versus E. coli AP; assay type: biochemical; conditions: FIG. 7
Protocol: as §2, §3
E. coli AP: P-Nitrophenylphosphate (1 mmol/liter); Tris-chloride (100 mmol/liter); Magnesium chloride (1 mmol/liter); and Zinc chloride (0.1 mmol/liter). […]
The diluted enzymes and inhibitors at appropriate concentrations (as shown in the Figures) were hand pipetted into numbered cuvettes in the multicuvette assembly of the VP Bichromatic Analyzer. […] The multicuvette assembly rotated and allowed measurement of absorbance changes at every two minutes intervals. […]

[10] = system: AP; conditions: cited from earlier work
[11] = pH 10.2, 37° C., p-nitrophenylphosphate 2.2 mmol/liter, from dose response curves, read-out: [I]50 Placental AP: concentration of inhibitor that gives 50% inhibition of enzyme activity
[12] = pH 10.2, 37° C., p-nitrophenylphosphate 2.2 mmol/liter, from dose response curves, read-out: [I]50 Intestinal AP: concentration of inhibitor that gives 50% inhibition of enzyme activity
[13] = pH 10.2, 37° C., p-nitrophenylphosphate 2.2 mmol/liter, from dose response curves

Compound	effectiveness against placental isoenzymes [1]	order of effectiveness, placental isoenzymes [1]	inhibition of the placental isoenzymes [1]	IC50 [1, 11]	order of effectiveness, intestinal isoenzymes [2]	inhibition of the intestinal isoenzymes [2]	IC50 [2, 12]	inhibition of the E. coli AP [3]	sensitivity of tissue-nonspecific AP to inhibitor [4]	order of potency as inhibitors of bone AP [7]	IC50 [7, 13]	times more active than levamisole, bone isoenzymes [7]	times more potent than L-phenylalanine, placental isoenzymes [1]	times more potent than levamisole, placental isoenzymes [1]	effectiveness against intestinal isoenzymes [2]	times as potent/effective as L-phenylalanine, intestinal isoenzymes [2]	times as potent/effective as levamisole, intestinal isoenzymes [2]	inhibition of calf intestinal AP versus E. coli AP [8]	inhibition of calf intestinal AP versus L-phenylalanine and levamisole [8]	selectivity for human AP compared to levamisole [9]	further results
c1ccc([C@H]2CN3CCSC3=N2)cc1 [Levamisole, (L-)2,3,5,6-tetrahydro-6-phenylimidazo[1,2-b]thiazole, reference compound]	a lot less effective compared to compounds APl-1 and APl-2	APl-2>APl-1>levamisole>L-phenylalanine	80%	2200 µM	APl-2>APl-1>L-phenylalanine>levamisole	48%	12000 µM	65%	strongly inhibited	–	–	–	–	–	–	–	–	–	–	–	inhibition of placental and intestinal isoenzymes [5]: only at much higher concentrations; effect on specific immuno-signal generated by calf intestinal AP [6]: does not interfere with the specific immuno-signal generated by calf intestinal AP
c1ccc(-c2ccc(C3CN4CCSC4=N3)cc2)cc1 (racemic) [API-3, (dl)-2,3,5,6-tetrahydro-6-(biphenyl)-imidazo-[1,2-b]-thiazole]	–	–	–	500 µM	–	–	–	–	–	–	–	–	–	–	–	–	–	–	–	–	–
C1=CN2CC(c3ccc(Oc4ccccc4)cc3)N=C2S1 (racemic) [API-2, (dl)-5,6-dihydro-6-(4-phenoxyphenyl)-imidazo-[1,2-b]-thiazole]	–	APl-2>APl-1>levamisole>L-phenylalanine	90%	26 µM	APl-2>APl-1>L-phenylalanine>levamisole	50-60%	200 µM	≤ 10%	–	APl-2>APl-1>levamisole	0.6 µM	100 times	115 times	85 times	much more effective inhibitors than levamisole and L-phenylalanine	23 times	60 times	inhibited calf intestinal AP more than E. coli AP	more efficient than L-phenylalanine and levamisole at inhibiting calf intestinal AP	much more selective inhibitors of human AP compared to levamisole	inhibition of bone isoenzymes ([7]; listed as APl-2): nearly complete inhibition at much lower concentrations compared to levamisole; times more potent than compound APl-1, placental isoenzymes ([1]; ratio to APl-1): about 6 times; times as effective as APl-1, intestinal isoenzymes ([2]; ratio to APl-1): 5 times; inhibition of calf intestinal AP versus human intestinal AP ([8]; listed as APl-2): more effective in inhibiting human intestinal AP than calf intestinal AP; also recorded: calf intestinal AP is more resistant to inhibition
N[C@@H](Cc1ccccc1)C(=O)O [L--Phe, L-phenylalanine, reference compound]	a lot less effective compared to compounds APl-1 and APl-2	APl-2>APl-1>levamisole>L-phenylalanine	–	–	APl-2>APl-1>L-phenylalanine>levamisole	–	–	–	not sensitive; also recorded: does not inhibit tissue-nonspecific AP isoenzymes	–	–	–	–	–	–	–	–	–	–	–	inhibition of bone isoenzymes [7]: does not inhibit bone isoenzymes; also recorded: activation of the bone isoenzymes; [I]50 Bone AP: concentration of inhibitor that gives 50% inhibition of enzyme activity [7, 13]: Activation; activation at 10000 µM ([7]; read-out: increase in activity of bone AP): ≤ 40%; IC50 [1]: 3000 µM; IC50 [2]: 4500 µM
c1ccc(Oc2ccc(C3CN4CCSC4=N3)cc2)cc1 (racemic) [API-1, (dl)-2,3,5,6-tetrahydro-6-(4-phenoxyphenyl)-imidazo[2,1-b]-thiazole]	–	APl-2>APl-1>levamisole>L-phenylalanine	90%	160 µM	APl-2>APl-1>L-phenylalanine>levamisole	50-60%	1000 µM	≤ 10%	–	APl-2>APl-1>levamisole	4 µM	15 times	19 times	14 times	much more effective inhibitors than levamisole and L-phenylalanine	5 times	12 times	inhibited calf intestinal AP more than E. coli AP	more efficient than L-phenylalanine and levamisole at inhibiting calf intestinal AP	much more selective inhibitors of human AP compared to levamisole	inhibition of bone isoenzymes ([7]; listed as APl-1): nearly complete inhibition at much lower concentrations compared to levamisole; inhibition of calf intestinal AP versus human intestinal AP ([8]; listed as APl-1): more effective in inhibiting human intestinal AP than calf intestinal AP; also recorded: calf intestinal AP is more resistant to inhibition
c1ccc([C@@H]2CN3CCSC3=N2)cc1 [D- counterpart]	–	–	–	–	–	–	–	–	–	–	–	–	–	–	–	–	–	–	–	–	AP inhibition by D- counterpart of levamisole [10]: not an AP inhibitor
